# From publication PMC10746280, “Bacterial efflux pump modulators prevent bacterial growth in macrophages and under broth conditions that mimic the host environment” (mBio, 2023)
# Legend:
# [1] = test system: S. Typhimurium ΔacrAB mutant; experiment: Growth (OD600) of ΔacrAB mutant in LPM 5.5; type: cell-based
# Excerpt: (§1) LPM 5.5 is chemically defined, contains low phosphate and low magnesium, and is buffered to pH 5.5 ([34], [39][–][41]). […] It was further noted that mutant strains lacking acrAB or tolC grow poorly in LPM 5.5 compared to the corresponding wild type (Fig. 5C through F).
# (§2) Fig 5 In LPM pH 5.5, acrAB and tolC are required for growth, and EPM analogs inhibit growth. (A and B) Optical density at 600 nm (OD600) and CFU per milliliter of S. Typhimurium in LPM 5.5 (at pH 5.5) or LPM 7 (at pH 7.0) in the presence of CU032. (C through F) OD600 in LPM 5.5 of (C and E) S. Typhimurium ΔacrAB mutant and wild-type strains, and (D and F) E. coli ΔtolC mutant and wild-type strains with (C, D) CU032 or (E and F) EPM35. Mean and SEM of three biological replicates are shown for A–F. The wild-type and mutant strain controls are the same for C and E and for D and F.
# E. coli ΔtolC mutant = experiment: Growth (OD600) of ΔtolC mutant in LPM 5.5; type: cell-based
# Excerpt: as §1, §2
# [2] = test system: S. enterica (SL1344 and SA10801); experiment: Growth/checkerboard in cation-adjusted Mueller Hinton Broth; type: cell-based; conditions: MHB
# Protocol: as §1
# Overnight cation-adjusted MHB-grown cultures of SL1344 or SA10801 were diluted in MHB or LPM 5.5 to an optical density at 600 nm (OD600) of 0.01 and distributed into polystyrene 96-well flat-bottom plates. EPM analogs were added at concentrations up to 300 µM, near the limit of solubility. The antibiotics ciprofloxacin, doxycycline, and erythromycin were added up to concentrations of 2 µM, 2 µM, and 8 µM, respectively. The final DMSO concentration was at or below 2% in all wells. Plates were grown at 37°C with shaking for 18 h and OD600 was monitored (BioTek Synergy H1, BioTek Eon). Each experiment was performed with biological triplicate or higher as indicated. Percent growth was determined by normalizing to OD600 reads in wells containing no D66 or antibiotic. Checkerboards in LPM 5.5 medium were performed with culture grown overnight in LB and diluted to an OD600 of 0.01 in LPM 5.5 and compounds/antibiotics were added as previously described. MuSyC analysis was pursued as previously described ([44], [45]). […]
# S. Typhimurium = experiment: Bacterial growth (OD600, CFU/mL) in LPM medium; type: cell-based
# Excerpt: as §1, §2
# Bacteria were grown in LB at 37°C ([76], [77]), unless otherwise stated. Cation-adjusted MHB was purchased from Sigma-Aldrich (90922). LPM 5.5 medium was made according to the following recipe: 5 mM KCl, 7.5 mM (NH4)2SO4, 0.5 mM K2SO4, 10 mM glucose, 49 µM MgCl2, 337 µM PO4-, 0.05% casamino acids (CAS)-amino acids, 80 mM MES, adjusted to pH to 5.5 with 5 M NaOH, and sterile filtered. Where stated, bacteria were grown with antibiotics: 30 µg/mL streptomycin.
# E. coli AcrB = molecular target: T1, E. coli AcrB (Escherichia coli, UniProt P31224); design: method as in PMID 29879224; conditions: ITC; previously reported; cited from earlier work
# T1 construct: 4xHis (C); made in house; host or cells: E. coli BL21-Gold (DE3), plasmid derived from pSPORT1
# T1 sequence (P31224 whole entry): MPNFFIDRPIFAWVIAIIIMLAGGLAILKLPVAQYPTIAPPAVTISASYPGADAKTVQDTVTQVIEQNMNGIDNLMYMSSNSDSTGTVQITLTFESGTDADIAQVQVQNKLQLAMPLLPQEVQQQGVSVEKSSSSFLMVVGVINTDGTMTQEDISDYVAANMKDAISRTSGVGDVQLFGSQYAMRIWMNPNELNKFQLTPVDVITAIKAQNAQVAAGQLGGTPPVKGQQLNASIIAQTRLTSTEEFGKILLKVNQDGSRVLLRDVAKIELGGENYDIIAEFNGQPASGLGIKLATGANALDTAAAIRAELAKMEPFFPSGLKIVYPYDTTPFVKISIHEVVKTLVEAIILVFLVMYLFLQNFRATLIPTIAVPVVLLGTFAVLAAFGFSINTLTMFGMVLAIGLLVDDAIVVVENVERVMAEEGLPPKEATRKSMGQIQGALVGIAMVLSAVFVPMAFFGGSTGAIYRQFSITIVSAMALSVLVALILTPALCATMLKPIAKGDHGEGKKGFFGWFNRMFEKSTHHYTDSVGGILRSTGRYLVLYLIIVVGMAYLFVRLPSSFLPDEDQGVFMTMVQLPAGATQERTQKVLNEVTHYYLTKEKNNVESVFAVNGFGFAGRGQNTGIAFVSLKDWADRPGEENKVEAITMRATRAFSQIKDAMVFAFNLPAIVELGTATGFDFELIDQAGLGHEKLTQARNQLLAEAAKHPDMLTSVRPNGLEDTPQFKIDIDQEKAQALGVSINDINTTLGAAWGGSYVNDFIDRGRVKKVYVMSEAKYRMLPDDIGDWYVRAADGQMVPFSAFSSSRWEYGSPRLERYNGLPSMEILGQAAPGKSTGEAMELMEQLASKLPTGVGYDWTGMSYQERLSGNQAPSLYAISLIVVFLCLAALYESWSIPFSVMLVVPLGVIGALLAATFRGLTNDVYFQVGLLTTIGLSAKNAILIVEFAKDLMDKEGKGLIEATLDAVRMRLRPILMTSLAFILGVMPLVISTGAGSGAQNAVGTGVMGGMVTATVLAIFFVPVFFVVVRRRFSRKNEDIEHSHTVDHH
Structure (SMILES),growth inhibition of ΔacrAB mutant compared to DMSO [1],growth inhibition of ΔtolC mutant compared to DMSO (E. coli ΔtolC mutant),growth inhibition of wild-type bacteria in Mueller Hinton Broth [2],nature of inhibitory activity (CFU per milliliter) (S. Typhimurium; LPM 5.5),growth inhibition in LPM 5.5 (S. Typhimurium; pH 5.5),growth inhibitory activity in LPM at pH 7.0 (S. Typhimurium; pH 7.0),KD (E. coli AcrB),∆H (E. coli AcrB),∆S (E. coli AcrB)
NC1CCN(CC(O)COc2ccc(Cl)c(Cl)c2)C1 (centres unmarked) [CU032],does not strongly inhibit growth,does not strongly inhibit growth,did not inhibit the growth,"bacteriostatic, not bactericidal",prevented bacterial growth,abolished,–,–,–
OC(COc1ccc(Cl)c(Cl)c1)CN1CCC(Nc2nccc(C(F)(F)F)n2)CC1 (centres unmarked) [EPM35],does not strongly inhibit growth,does not strongly inhibit growth,–,–,–,–,sub-micromolar range,"−7,663 ± 84 cal/mol",4.2 cal/(mol deg)
